Test: gradient 5% acetonitrile 3 min, to 50% in 2 min, to 85% in 15 min, held 3 min, 100 µL/min
Conditions: column: Zorbax Extend-C18 2.1 x 50 mm; eluents: water / acetonitrile, 0.1% formic acid
In short: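 Retention time was recorded from adduct peaks, which were picked computationally and each inspected manually. Pure standards ran in mixtures of ~100 molecules on HPLC coupled to a quadrupole time-of-flight mass spectrometer, in positive and negative ionization mode, through a Zorbax Extend-C18 column (2.1 × 50 mm, 1.8 μm) at 100 μL/min. Eluents were water and acetonitrile, each with 0.1% formic acid.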

Compound | RP-LC retention time
CCS(=O)(=O)N1CC(=O)N(c2ccc(Cl)cc2)C(C)(C(=O)NC2CCCCC2)C1 (configuration not stated) | 882 s
CCc1nc2c(NC(=O)c3ccc(C)c(C)c3)cccn2n1 | 922 s
COc1cc(NC(=O)Nc2c(-c3cccnc3)[nH]c3ccccc23)cc(OC)c1 | 679 s
CC(C)(C)S(=O)(=O)c1ccc(N2CCN(Cc3ccccc3)CC2)nn1 | 566 s
O=C(CC1=NS(=O)(=O)c2ccccc2N1)Nc1ccc(F)cc1F | 679 s
Cn1c(CNC(=O)c2cccc(N3CCNC(c4ccccc4)C3)n2)nc2ccccc21 (configuration not stated) | 573 s
COc1ccc(S(=O)(=O)N2CCC(c3ccncc3)CC2)cc1Cl | 667 s
Cc1ccc(CNC(=O)CN2C(=O)C(Oc3ccc(F)cc3)C23CCCCC3)o1 (configuration not stated) | 1020 s
CCCn1c(-c2cccc(C(=O)NCc3ccncc3)c2)nc2cccnc21 | 592 s
CCOC(=O)c1c(C)oc2nc(C)nc(NCc3cccc(Cl)c3)c12 | 1330 s
O=C(CCc1cc(Cl)no1)N1CCCCC1c1noc(COCC2CC2)n1 (configuration not stated) | 934 s
O=C(O)C1CC(=O)N(c2ccc3c(c2)OCO3)C1 (configuration not stated) | 619 s
Cn1nc(CNC(=O)c2ccc(Br)cc2)c2ccccc21 | 840 s
O=C(Cc1ccc([N+](=O)[O-])cc1)NCc1nnnn1-c1ccc(F)cc1 | 701 s
Cc1ccc(N2CCN(C(=O)C(C)(C)C)CC2)nn1 | 531 s
NS(=O)(=O)c1ccc(CCNS(=O)(=O)c2cccc(-c3nc(-c4ccccc4)no3)c2)cc1 | 952 s
Cc1ccc2cc(CCC(=O)NCCCN3CCc4ccccc4C3)c(=O)[nH]c2c1 | 614 s
COCCCNC(=O)Cn1cnc2onc(-c3ccc(Cl)cc3)c2c1=O | 792 s
Cc1c(C(=O)NCc2ccccc2Br)cc(-c2ccccc2)n1C | 1040 s
Cc1ccccc1C(=O)NCCc1c[nH]c2ccc(Cl)cc12 | 889 s

Next, values leading:

RP-LC retention time | Compound
541 s | O=C(NCc1ccccn1)C1CN(C(=O)c2c[nH]c3ccccc23)C1
812 s | O=C(Cc1ccccc1)N1CCCCC1c1nc(-c2cnccn2)no1 (configuration not stated)
675 s | CC1CCN(c2cc(-c3nccn3CC(=O)NC3CCCCC3)ccn2)CC1
796 s | O=C(c1ccc2c(c1)OCO2)N1CCCn2nc(-c3cccs3)cc2C1
564 s | O=C(NCc1cccs1)C1CCN(c2cc(-n3ccnc3)ncn2)CC1
1080 s | COc1ccccc1-c1c(C(F)(F)F)oc2cc(OC(=O)C3CC3)ccc2c1=O
869 s | Cc1ccc(N2CCC(NC(=O)Cc3ccccc3C)C2=O)cc1 (configuration not stated)
1270 s | Cc1nc(-c2csc(S(=O)(=O)N3CCN(c4cccc(Cl)c4)CC3)c2)sc1C
744 s | CCCNC(=O)C1CCCN(c2nc3ncn(CC(=O)Nc4cc(F)cc(F)c4)c(=O)c3s2)C1 (configuration not stated)
666 s | Cc1ncsc1C1N(C2CCN(C(=O)c3ccco3)CC2)C(=O)C12CCCC2 (configuration not stated)
758 s | Cc1nsc2ncc(C(=O)N3CCOCC3)c(N3CCC(C(=O)Nc4ccccc4F)CC3)c12
547 s | COc1cc2c(cc1OC)C1C(C(=O)NCCCN3CCN(C)CC3)c3ccccc3C(=O)N1CC2 (configuration not stated)
735 s | O=C(NCc1ccc(N2CCOCC2)cc1)c1cccc2c1CCN2C(=O)C1CC1
722 s | CN1C(=O)CCC2(CNC(=O)Nc3ccc4c(c3)OCCO4)CCCC=C12 (configuration not stated)
631 s | CCc1nc2cccnc2n1CCN1CCN(C(=O)Nc2ccc(Br)cc2)CC1
763 s | Cn1nc(Br)nc1Sc1ccccc1NC(=O)C1CC1
760 s | O=C1CC(C(=O)N2CCCCCC2)CN1CCc1ccccc1 (configuration not stated)
